Reference: patent US8765690B2, “Treatment of cancer with glufosfamide in patients not receiving insulin therapy” (Threshold Pharmaceuticals, Inc., priority 2007, dated 2014)
Values joined by “and” are separate entries in the source; they are usually repeats but may differ in a detail not shown here. Equal values may be shown once. Where a name gives a salt, the structure may show the parent alone.

How the values were obtained:
[1] = tested on: gemcitabine resistant metastatic pancreatic cancer; experiment: Phase 3 clinical trial of glufosfamide versus best supportive care, overall survival; type: in vivo, human; details: for Actual overall survival: individual diabetic patient, named GLD given orally in combination with glufosfamide 4500 mg/m^2 over 6 hours once every 3 weeks; for relative risk for overall survival in Group 1 and Group 2 patients: glufosfamide vs BSC
Protocol: Glufosfamide is a prodrug of an alkylating agent useful in the treatment of cancer. A multi-center, randomized, open-label phase 3 clinical trial was conducted to evaluate the safety and efficacy of glufosfamide in treating gemcitabine resistant metastatic pancreatic cancer as measured by overall survival compared to BSC (best supportive care). Three hundred and three patients were randomized to the trial: 148 patients were randomized to the glufosfamide arm (n=148, Group 1) and 155 to BSC (n=155, Group 2).
Patients in Group 1 were administered glufosfamide for up to 42 weeks. Glufosfamide was administered intravenously over 6 hours once every 3 weeks at 4500 mg/m^2 for up to 14 doses.
One-quarter of the dose was infused over 30 minutes and the remainder over the following five and one-half hours.
To assess the efficacy of glufosfamide treatment, patients in Group 1 and Group 2 were not administered any medication known to have antitumor effects other than glufosfamide, e.g., the patients were not administered any other chemotherapy or systemic cytotoxic/cytostatic agents. However, other appropriate supportive measures and concomitant medications not known to have antitumor effects, such as analgesics, antibiotics, transfusions, hematopoietic colony-stimulating factors (as therapy but not as prophylaxis), erythropoietin, and megestrol acetate for appetite stimulation were administered when appropriate.
Tumor assessment was performed at baseline and once every 6 weeks for the first 24 weeks and then once every 9 weeks. The primary efficacy indicator was the overall survival in Group 1 compared to that in Group 2.
Seven diabetic patients (Group 1A) having gemcitabine resistant pancreatic cancer were treated with glufosfamide for 2-11 cycles in combination with various glucose lowering drugs (GLDs) other than insulin (see Table 2 below). Glufosfamide was administered intravenously over 6 hours, once every 3 weeks, at 4500 mg/m^2. The GLD was administered orally, once every day or qd, […] prior to the first glufosfamide administration; except that, the GLD was administered to patient no. 6 three times daily or tid. […] Tumor assessment was performed at baseline and once every 6 weeks for the first 24 weeks and then once every 9 weeks. Efficacy outcomes were evaluated based on comparing the overall median survival in Group 1A with that in Group 2A. The median overall survival in the Group 1A patients was 418 days (95% CI; 85 days-643 days) compared to 84 days (95% CI; 45 days-102 days) for those in group 2A (FIG. 3).

MiaPaCa-2-RFP tumor = experiment: Surgical orthotopic implantation MiaPaCa-2-RFP pancreatic tumor model in nude mice, survival; type: in vivo, NCr nu/nu mice
Protocol: A total of sixty male NCr nu/nu mice, 5-6 weeks old, were used in the study. Original breeding pairs were purchased from Taconic, Germantown, N.Y. Test animals were bred and maintained in a HEPA filtered environment for the experiment. Cages, food and bedding were autoclaved. The animal diets were obtained from PMI Nutrition International Inc. (Brentwood, Mo.).
RFP gene transduction of MiaPaCa-2 cells: For RFP gene transduction, 20% confluent MiaPaCa-2 cells (ATCC, Rockville, Md.) were incubated with a 1:1 precipitated mixture of retroviral supernatants of PT67 cells and RPMI 1640 for 72 h. Fresh medium was replenished at this time. MiaPaCa-2 cells were harvested by trypsin-EDTA 72 h posttransduction and subcultured at a ratio of 1:15 into selective medium that contained 200 μg/ml G418. The level of G418 was increased to 1000 μg/ml stepwise. The brightest MiaPaCa-2 cell clones expressing RFP were selected, combined, and then amplified and transferred by conventional culture methods.
Subcutaneous Xenografts: Tumor stocks were made by subcutaneously injecting MiaPaCa-2-RFP cells at a concentration of 5×10^6 cells/200 μl into the flank of nude mice. see e.g., Bouvet et al. Cancer Res., 2002, 62, 1534-40 incorporated herein by reference. The strong RFP expression of tumors grown in the subcutis of mice was confirmed before harvest. The tumor tissues harvested from s.c growth in nude mice were inspected, and any grossly necrotic or suspected necrotic or non-RFP tumor tissues were removed. Tumor tissues were subsequently cut into small fragments of approximately 2 mm^3. […]
Statistical methods used in efficacy evaluation: Tumor volumes and tumor weights were compared using the Student's t-test with an α=0.05. Metastatic frequency of all groups were analyzed with Fisher's exact test with an α=0.05. Comparison of animal survival time between each treatment group and untreated control was analyzed using the Log-rank analysis with an α=0.05.

For `COc1ccc(Cl)cc1C(=O)NCCc1ccc(S(=O)(=O)NC(=O)NC2CCCCC2)cc1` [Glibenclamide], the Actual overall survival [1] was 85 and 643.

In the case of `Cc1ccc(S(=O)(=O)NC(=O)NN2CC3CCCC3C2)cc1` (stereo not shown) [Gliclazide], the Actual overall survival [1] is reported as 145 and 476+.

`CCC1=C(C)CN(C(=O)NCCc2ccc(S(=O)(=O)NC(=O)N[C@H]3CC[C@H](C)CC3)cc2)C1=O` [Glimepiride] was tested, and the Actual overall survival [1] was 54.

`Cc1cnc(C(=O)NCCc2ccc(S(=O)(=O)NC(=O)NC3CCCCC3)cc2)cn1` [Glipizide] showed an Actual overall survival [1] of 418.

`CN(CCOc1ccc(CC2SC(=O)NC2=O)cc1)c1ccccn1` (stereo not shown) [Rosiglitazone maleate] was tested, and the Actual overall survival [1] was 479.

With `O=P(NCCCl)(NCCCl)O[C@@H]1O[C@H](CO)[C@@H](O)[C@H](O)[C@H]1O` [glufosfamide, beta-D-glucosyl-ifosfamide mustard] the median overall survival (MiaPaCa-2-RFP tumor; glufosfamide 50 mg/kg i.v. qd x 7 alone) was 26 days, the median overall survival (MiaPaCa-2-RFP tumor; glufosfamide 50 mg/kg i.v. qd x 7 in combination with glimepiride 12 mg/kg p.o. qd x 14, log rank p<0.01) was 35 days and the “survival improvement compared to glufosfamide administered alone” value (MiaPaCa-2-RFP tumor; glufosfamide 50 mg/kg in combination with glimepiride 12 mg/kg, FIG. 4) was “more effective in extending survival”. For the same molecule, the median overall survival ([1]; Group 1 (n=148), glufosfamide 4500 mg/m^2 i.v. over 6 hours once every 3 weeks, all randomized patients) was 105 days, the median overall survival ([1]; Group 1 patients (n=123) not administered insulin prior to first glufosfamide administration) was 115 days and the “relative risk for overall survival in Group 1 and Group 2 patients” value (“relative risk for overall survival” for short) ([1]; diabetic patients receiving glucose lowering drug other than insulin, p=0.020) was 0.24. The “relative risk for overall survival” value ([1]; proportional hazards model stratified by KPS, all patients, p=0.187) was 0.848, the “relative risk for overall survival” value ([1]; patients not administered insulin prior, p=0.048) was 0.761 and the “benefit from the administration of glufosfamide” value ([1]; patients receiving a glucose lowering drug other than insulin, compared with patients not receiving such drugs) was “more benefit”. For the same molecule, the “benefit from the administration of glufosfamide” value ([1]; patients receiving insulin) was “no benefit or less benefit” and the median overall survival ([1]; seven diabetic Group 1 patients (Group 1A) on glufosfamide plus a glucose lowering drug other than insulin, no prior insulin) was 418 days.
